Source: patent US5202315A, “Cephalosporin compounds” (Lucky, Ltd., priority 1989, dated 1993)
≈ marks a conversion by molar mass, not a printed value. Where two headings read alike, the source gives them in different places.

Tests used:
[1] = In-vivo absorbency (plasma concentrations & pharmacokinetic parameters); set-up: species or system SD rat (male); conditions: plasma, SD male rat, iv 20 mg/kg, read-out: Plasma Conc.
[2] = tested on: Morganella morganii ATCC 8076h; test: Antibacterial activity, MIC; type: cell-based; conditions: ATCC8076H, agar two-fold dilution, 37° C., 20 hours
Description: (§1) Also, the in vitro antibacterial activity was determined by the by a two-fold dilution method as described below:
(§2) That is, the two-fold serial dilutions of the compound were made dispersed in Muller-Hinton agar medium. 2 μl of standard test strain which had the 10^7 CFU per ml was inoculated on the medium, and was incubated at 37° C. for 20 hours.

[3] = tested on: Serratia marcescens ATCC 27117; test: Antibacterial activity, MIC; type: cell-based; conditions: ATCC27117, ATCC 27117, agar two-fold dilution, 37° C., 20 hours, read-out: MIC
Description: as §1, §2

[4] = tested on: Acinetobacter calcoaceticus ATCC 15473; test: Antibacterial activity, MIC; type: cell-based; conditions: ATCC15473, ATCC 15473, agar two-fold dilution, 37° C., 20 hours, read-out: MIC
Description: as §1, §2

[5] = tested on: Klebsiella pneumoniae ATCC 10031; test: Antibacterial activity, MIC; type: cell-based; conditions: ATCC10031, ATCC 10031, agar two-fold dilution, 37° C., 20 hours, read-out: MIC
Description: as §1, §2

[6] = tested on: Streptococcus faecalis ATCC 29212; test: Antibacterial activity, MIC; type: cell-based; conditions: Enterococcus faecalis, ATCC29212; ATCC 29212; agar two-fold dilution, 37° C., 20 hours; read-out: MIC
Description: as §1, §2

[7] = tested on: Pseudomonas aeruginosa ATCC 27853; test: Antibacterial activity, MIC; type: cell-based; conditions: ATCC27853, ATCC 27853, agar two-fold dilution, 37° C., 20 hours, read-out: MIC
Description: as §1, §2

[8] = tested on: Enterobacter cloacae ATCC 27508; test: Antibacterial activity, MIC; type: cell-based; conditions: ATCC27508, ATCC 27508, agar two-fold dilution, 37° C., 20 hours, read-out: MIC
Description: as §1, §2

[9] = tested on: Micrococcus luteus ATCC 9341; test: Antibacterial activity, MIC; type: cell-based; conditions: ATCC9341, ATCC 9341, agar two-fold dilution, 37° C., 20 hours, read-out: MIC
Description: as §1, §2

[10] = tested on: Staphylococcus aureus ATCC 10537; test: Antibacterial activity, MIC; type: cell-based; conditions: ATCC10537, ATCC 10537, agar two-fold dilution, 37° C., 20 hours, read-out: MIC
Description: as §1, §2

[11] = tested on: Proteus mirabilis ATCC 25933; test: Antibacterial activity, MIC; type: cell-based; conditions: ATCC25933, ATCC 25933, agar two-fold dilution, 37° C., 20 hours, read-out: MIC
Description: as §1, §2

[12] = tested on: Proteus vulgaris ATCC 6059; test: Antibacterial activity, MIC; type: cell-based; conditions: ATCC6059, ATCC 6059, agar two-fold dilution, 37° C., 20 hours, read-out: MIC
Description: as §1, §2

[13] = tested on: Escherichia coli ATCC 25922; test: Antibacterial activity, MIC; type: cell-based; conditions: ATCC25922, agar two-fold dilution, 37° C., 20 hours
Description: as §1, §2

[14] = tested on: Salmonella typhimurium ATCC 14028; test: Antibacterial activity, MIC; type: cell-based; conditions: Salmonella enterica; ATCC 14028; agar two-fold dilution, 37° C., 20 hours; read-out: MIC
Description: as §1, §2

[15] = tested on: Pseudomonas aeruginosa ATCC 25619; test: Antibacterial activity, MIC; type: cell-based; conditions: ATCC25619, ATCC 25619, agar two-fold dilution, 37° C., 20 hours, read-out: MIC
Description: as §1, §2

[16] = tested on: Staphylococcus aureus ATCC 6538p; test: Antibacterial activity, MIC; type: cell-based; conditions: ATCC6538P, ATCC 6538p, agar two-fold dilution, 37° C., 20 hours, read-out: MIC
Description: as §1, §2

[17] = tested on: Pseudomonas aeruginosa ATCC 10145; test: Antibacterial activity, MIC; type: cell-based; conditions: ATCC10145, ATCC 10145, agar two-fold dilution, 37° C., 20 hours, read-out: MIC
Description: as §1, §2

[18] = tested on: Staphylococcus epidermidis ATCC 12228; test: Antibacterial activity, MIC; type: cell-based; conditions: ATCC12228, ATCC 12228, agar two-fold dilution, 37° C., 20 hours, read-out: MIC
Description: as §1, §2

[19] = tested on: Shigella sonnei ATCC 11060; test: Antibacterial activity, MIC; type: cell-based
Description: as §1, §2

[20] = tested on: Shigella flexneri ATCC 11836; test: Antibacterial activity, MIC; type: cell-based; conditions: ATCC11836, agar two-fold dilution, 37° C., 20 hours
Description: as §1, §2

[21] = tested on: Bacillus cereus ATCC 11778; test: Antibacterial activity, MIC; type: cell-based; conditions: ATCC11778, ATCC 11778, agar two-fold dilution, 37° C., 20 hours, read-out: MIC
Description: as §1, §2

[22] = tested on: Enterobacter aerogenes ATCC 29751; test: Antibacterial activity, MIC; type: cell-based; conditions: Klebsiella aerogenes, ATCC29751; ATCC 29751; agar two-fold dilution, 37° C., 20 hours; read-out: MIC
Description: as §1, §2

[23] = tested on: Citrobacter freundii ATCC 8090; test: Antibacterial activity, MIC; type: cell-based; conditions: ATCC8090, ATCC 8090, agar two-fold dilution, 37° C., 20 hours, read-out: MIC
Description: as §1, §2

[24] = tested on: Escherichia coli ATCC 10536; test: Antibacterial activity, MIC; type: cell-based; conditions: ATCC10536, agar two-fold dilution, 37° C., 20 hours
Description: as §1, §2

[25] = tested on: Providencia rettgeri ATCC 9250; test: Antibacterial activity, MIC; type: cell-based; conditions: ATCC9250, agar two-fold dilution, 37° C., 20 hours
Description: as §1, §2

[26] = In-vivo absorbency (plasma concentrations & pharmacokinetic parameters); set-up: species or system SD rat (male); conditions: plasma, SD male rat, iv 20 mg/kg; for concentration at 1 h: 60 min; for concentration at 1 h / concentration at 2 h: read-out: Plasma Conc.; for concentration at 2 h: 120 min; for AUC / half-life: two compartment model; for half-life: rat, iv, 20 mg/kg
Text: The blood samples from the femoral vein of the rats were taken every hour after administration, and analyzed by bio-assay(agar well method).
Tested animal: SD male Rat (220~340 g)

[27] = tested on: Bacillus megaterium ATCC 9885; test: Antibacterial activity, MIC; type: cell-based; conditions: Priestia megaterium, ATCC9885; ATCC 9885; agar two-fold dilution, 37° C., 20 hours; read-out: MIC
Description: as §1, §2

[28] = ATCC11060, ATCC 11060, agar two-fold dilution, 37° C., 20 hours, read-out: MIC

SMILES	MIC [2]	MIC [3]	MIC [4]	MIC [5]	MIC [7]	MIC [8]	MIC [9]	MIC [10]	MIC [11]	MIC [12]	MIC [13]	MIC [14]	MIC [15]	MIC [16]	MIC [17]	MIC [18]	MIC [20]	MIC [21]	MIC [22]	MIC [23]	other results
CCc1c(N)nc(SCC2=C(C(=O)[O-])N3C(=O)C(NC(=O)/C(=N\OC(C)(C)C(=O)O)c4csc(N)n4)C3SC2)[n+](CC)c1N (stereo not shown) [Compound I-33]	≤ 0.008 µg/mL	0.5 µg/mL (≈ 0.751 µM)	16 µg/mL (≈ 24 µM)	0.13 µg/mL (≈ 0.195 µM)	2 µg/mL (≈ 3 µM)	0.031 µg/mL (≈ 0.0466 µM)	0.5 µg/mL (≈ 0.751 µM)	4 µg/mL (≈ 6.01 µM)	0.063 µg/mL (≈ 0.0946 µM)	0.13 µg/mL (≈ 0.195 µM)	0.13 µg/mL (≈ 0.195 µM)	0.5 µg/mL (≈ 0.751 µM)	2 µg/mL (≈ 3 µM)	4 µg/mL (≈ 6.01 µM)	4 µg/mL (≈ 6.01 µM)	2 µg/mL (≈ 3 µM)	0.063 µg/mL (≈ 0.0946 µM)	128 µg/mL (≈ 192 µM)	4 µg/mL (≈ 6.01 µM)	0.13 µg/mL (≈ 0.195 µM)	concentration at 0.5 min [1]: 194000 ng/mL; concentration at 2.5 min [1]: 79000 ng/mL; concentration at 5 min [1]: 55000 ng/mL; concentration at 10 min [1]: 36000 ng/mL; concentration at 20 min [1]: 21000 ng/mL; concentration at 40 min [1]: 13000 ng/mL; MIC [6]: > 128 µg/mL; MIC [19, 28]: 0.25 µg/mL (≈ 0.375 µM); MIC [24]: 0.13 µg/mL (≈ 0.195 µM); MIC [25]: ≤ 0.008 µg/mL; concentration at 1 h [26]: 7000 ng/mL; concentration at 2 h [26]: 1200 ng/mL; AUC [26]: 30500 ng·h/mL; half-life ([26]; read-out: T1/2 (α)): 2 min; half-life ([26]; read-out: T1/2 (β)): 24 min
Cc1c(N)nc(SCC2=C(C(=O)[O-])N3C(=O)C(NC(=O)/C(=N\OC(C)(C)C(=O)O)c4csc(N)n4)C3SC2)[n+](N)c1N (stereo not shown) [Compound I-34]	≤ 0.008 µg/mL	0.13 µg/mL (≈ 0.204 µM)	4 µg/mL (≈ 6.26 µM)	0.063 µg/mL (≈ 0.0986 µM)	2 µg/mL (≈ 3.13 µM)	0.016 µg/mL (≈ 0.0251 µM)	0.5 µg/mL (≈ 0.783 µM)	2 µg/mL (≈ 3.13 µM)	0.031 µg/mL (≈ 0.0485 µM)	0.063 µg/mL (≈ 0.0986 µM)	0.13 µg/mL (≈ 0.204 µM)	0.13 µg/mL (≈ 0.204 µM)	2 µg/mL (≈ 3.13 µM)	4 µg/mL (≈ 6.26 µM)	2 µg/mL (≈ 3.13 µM)	2 µg/mL (≈ 3.13 µM)	0.031 µg/mL (≈ 0.0485 µM)	128 µg/mL (≈ 200 µM)	1 µg/mL (≈ 1.57 µM)	0.063 µg/mL (≈ 0.0986 µM)	concentration at 0.5 min [1]: 181000 ng/mL; concentration at 2.5 min [1]: 89000 ng/mL; concentration at 5 min [1]: 68000 ng/mL; concentration at 10 min [1]: 47000 ng/mL; concentration at 20 min [1]: 31000 ng/mL; concentration at 40 min [1]: 15000 ng/mL; MIC [6]: > 128 µg/mL; MIC [19, 28]: 0.063 µg/mL (≈ 0.0986 µM); MIC [24]: 0.063 µg/mL (≈ 0.0986 µM); MIC [25]: ≤ 0.008 µg/mL; concentration at 1 h [26]: 7800 ng/mL; concentration at 2 h [26]: 1200 ng/mL; AUC [26]: 37200 ng·h/mL; half-life ([26]; read-out: T1/2 (α)): 1 min; half-life ([26]; read-out: T1/2 (β)): 21 min
CO/N=C(\C(=O)NC1C(=O)N2C(C(=O)[O-])=C(CSc3nc(N)cc(N)[n+]3C)CSC12)c1csc(N)n1 (stereo not shown) [Compound I-10]	≤ 0.008 µg/mL	0.063 µg/mL (≈ 0.114 µM)	8 µg/mL (≈ 14.5 µM)	0.016 µg/mL (≈ 0.029 µM)	8 µg/mL (≈ 14.5 µM)	≤ 0.008 µg/mL	0.063 µg/mL (≈ 0.114 µM)	0.25 µg/mL (≈ 0.453 µM)	0.13 µg/mL (≈ 0.236 µM)	0.13 µg/mL (≈ 0.236 µM)	0.063 µg/mL (≈ 0.114 µM)	0.25 µg/mL (≈ 0.453 µM)	2 µg/mL (≈ 3.63 µM)	0.25 µg/mL (≈ 0.453 µM)	32 µg/mL (≈ 58 µM)	0.13 µg/mL (≈ 0.236 µM)	0.016 µg/mL (≈ 0.029 µM)	32 µg/mL (≈ 58 µM)	0.5 µg/mL (≈ 0.906 µM)	0.063 µg/mL (≈ 0.114 µM)	MIC [27]: 0.25 µg/mL (≈ 0.453 µM); MIC [19, 28]: 0.063 µg/mL (≈ 0.114 µM); MIC [24]: 0.063 µg/mL (≈ 0.114 µM); MIC [25]: ≤ 0.008 µg/mL
CCO/N=C(\C(=O)NC1C(=O)N2C(C(=O)[O-])=C(CSc3nc(N)cc(N)[n+]3C)CSC12)c1csc(N)n1 (stereo not shown) [Compound I-11]	≤ 0.008 µg/mL	0.13 µg/mL (≈ 0.23 µM)	4 µg/mL (≈ 7.07 µM)	0.016 µg/mL (≈ 0.0283 µM)	4 µg/mL (≈ 7.07 µM)	≤ 0.008 µg/mL	0.016 µg/mL (≈ 0.0283 µM)	0.25 µg/mL (≈ 0.442 µM)	0.25 µg/mL (≈ 0.442 µM)	0.25 µg/mL (≈ 0.442 µM)	0.13 µg/mL (≈ 0.23 µM)	0.25 µg/mL (≈ 0.442 µM)	2 µg/mL (≈ 3.54 µM)	0.25 µg/mL (≈ 0.442 µM)	8 µg/mL (≈ 14.1 µM)	0.063 µg/mL (≈ 0.111 µM)	0.031 µg/mL (≈ 0.0548 µM)	32 µg/mL (≈ 56.6 µM)	0.5 µg/mL (≈ 0.884 µM)	0.063 µg/mL (≈ 0.111 µM)	MIC [27]: 0.13 µg/mL (≈ 0.23 µM); MIC ([19]; ATCC11060, 20 h): 0.13 µg/mL (≈ 0.23 µM); MIC [24]: 0.13 µg/mL (≈ 0.23 µM); MIC [25]: ≤ 0.008 µg/mL
